Measurements as given in US8993559B2, “Use of ibogamine congeners for treating obesity” (Albany Medical College, priority 2008, dated 2015).
Entries after “also recorded” stand apart in the source; their conditions may differ.

Tests used:
Sprague-Dawley rats = experiment: Palatable liquid consumption, two-bottle paradigm (19-h sessions); format: in vivo, rat; conditions: for water consumption: water/water control
Experimental: Naïve female Sprague-Dawley rats (230-270 g; Taconic, Germantown, N.Y.) were housed individually and maintained on a normal 12 hr light cycle (light on/off at 7 a.m./7 p.m.) in the colony room. For all experiments, food (normal chow) and water were provided ad libitum. The experiments were conducted in accordance with the “Guide for the Care and Use of Laboratory Animals” (National Academy of Sciences, 1996).
On the first day of the experiment, the regular cage tops were replaced with custom-made cage tops containing metal holders for two 100-ml graduated glass bottles (Lab Products Inc., Seaford, Del.); the bottles were placed approximately 2″ apart. Different groups of rats were allowed 19-h (3.30 p.m.-10.30 a.m.) unlimited access to water and 5% sucrose, water and 0.1% saccharine, water and 0.6% saline, or water and water. The concentrations were chosen in accordance with previous reports using similar two-bottle drinking paradigms. See Dess, N. K., Physiol Behav., 69: 247-257 (2000) and Warwick, Z. S. et al., Physiol Behav, 60: 711-715 (1996), which are hereby incorporated by reference in their entirety. The animals were maintained on a normal chow during these sessions. The bottles with palatable fluids were removed at the end of the 19-h sessions, but water and chow remained always available. The consumption of palatable fluids and water during the sessions were recorded on a daily basis for four consecutive sessions: two initial baseline sessions, one treatment session and one port-treatment session. The baseline consumption levels of fluids were established during the initial two sessions; immediately before the third session, animals were injected with 18-MC (10, 20, or 40 mg/kg i.p.) or vehicle. To account for possible side preferences of rats, the bottle sides were switched daily; animals expressing strong side preferences during the baseline sessions were excluded from further analysis. Each animal was used for four weeks, receiving three different dosages of 18-MC and vehicle in random order.
The average levels of fluid consumption (ml) during the first two sessions (baseline), as well as consumption during the post-injection session and the recovery session, were compared by two-way ANOVA using treatment and session as main factors; this analysis was followed by one-way ANOVAs for each treatment group and post-hoc tests when appropriate.

[1] = Weight gain paradigm: sucrose-drinking animals; format: in vivo, rat
Experimental: FIG. 11 is a graph showing effects of repeated administration of 18-MC (20 mg/kg i.p. for 14 days) on body fat depots (mean±SEM). *=p<0.05. On the seventh day after the last injection of 18-MC, animals were euthanized in CO2 chambers and decapitated. Necropsies were performed to remove periovarian, perirenal and inguinal fat pads.
Animals were maintained on a regular chow and water for the duration of experiment (three weeks). On the first day of experiment, animals received additional bottle containing 30% sucrose solution which remained available for the following three weeks; the bottle sides were switched daily. The body weights of rats were recorded daily for the following two weeks immediately prior administration of 18-MC (20 mg/kg, i.p.) or vehicle. After the last 18-MC injection, the weights were monitored for the additional week.
For the weight gain experiment, the data for all four treatment groups from days 1-21 were analyzed using two-way ANOVA, with treatment and time as main factors. Furthermore, the data for the first two weeks and the last week for water-vehicle, water-18-MC and sucrose 18-MC were analyzed separately using two-ANOVA, with treatment and time as main factors. Post-hoc comparison tests (Fisher LSD tests) were conducted when appropriate.

rats [2] = experiment: Ad libitum sucrose intake over 24 hours (choice of sucrose or water); format: in vivo, rat
Experimental: FIG. 9 is a graph showing effects of 18-MC (10, 20, 40 mg/kg i.p.) on consumption of sucrose. Each bar represents mean 24 hour consumption of 5% sucrose solution expressed as percent of baseline (S.E.M.): *=p<0.05.
As described above, systemic 18-MC can decrease operant responding for sucrose and local administration of 18-MC into the dorsolateral tegmentum can also do so. These findings, which were unanticipated, led to investigation of the possibility that 18-MC might be useful in decreasing intake of sweet substances when available ad libitum along with normal rat chow. Rats offered a choice of drinking sucrose (15%) or water have strong preferences (70-80%) for sucrose. […] Whether 18-MC's effect on sucrose intake has a consequence in terms of body weight regulation was explored in a subsequent study. Rats given unlimited access to sucrose (30%) for two weeks gained excessive weight, consistent with other studies of sucrose-induced obesity. […] 18-MC had no effect on the body weight of “normal” rats having only water available.

rats [3] = experiment: Drug self-administration and water-reinforced responding in rats (earlier studies); format: in vivo, rat
Experimental: Other work has extended the “anti-addictive” effect of 18-MC to oral intake of ethanol. In all cases, these effects last for at least 24 hours. […] Unlike 18-MC, ibogaine and many other iboga alkaloid congeners (approximately 30 tested) decrease responding for water as well as for drugs. And it was precisely this unique specificity that led to development and study of 18-MC.

[4] = test system: morphine-experienced rats; conditions: cited from earlier work
rats [5] = conditions: cited from earlier work
[6] = saccharin/water experiment, 10, 20 and 40 mg/kg i.p.
[7] = sucrose/water experiment, 10, 20 and 40 mg/kg i.p.

COCC[C@H]1CC2CN3CCc4c([nH]c5ccccc45)[C@](C(=O)OC)(C2)[C@H]13 [18-MC, 18-methoxycoronaridine]
saccharin intake, recovery session (Sprague-Dawley rats; 0.1% saccharin/water, 10 mg/kg i.p.): reduced intake
saccharin intake, post-injection session vs baseline (Sprague-Dawley rats; 0.1% saccharin/water, 10, 20 and 40 mg/kg i.p.): significantly less
saline consumption vs baseline (Sprague-Dawley rats; 0.6% saline/water, 10 mg/kg i.p.): remained unchanged
saline consumption vs baseline (Sprague-Dawley rats; 0.6% saline/water, 20 and 40 mg/kg i.p., 19 h following injection): reduced
effect on saline consumption, recovery session (Sprague-Dawley rats; 0.6% saline/water, highest dose (40 mg/kg i.p.)): also significant
sucrose intake, recovery session (Sprague-Dawley rats; 5% sucrose/water, 10, 20 and 40 mg/kg i.p.): returned to baseline
sucrose consumption, post-injection session vs baseline (Sprague-Dawley rats; 5% sucrose/water, 10, 20 and 40 mg/kg i.p., 19-h session): significantly reduced
selectivity for reducing consumption of sucrose and saccharin relative to water (Sprague-Dawley rats; control water/water experiment vs two-bottle experiments): at least four-fold
ceiling effect dose, consumption of sucrose and saccharin (Sprague-Dawley rats; dose range 10-40 mg/kg i.p.): 10 mg/kg
ceiling effect dose, saline consumption (Sprague-Dawley rats; dose range 10-40 mg/kg i.p.): 20 mg/kg
effect on total fluid consumption, recovery session (Sprague-Dawley rats; saccharin/water experiment, 10 mg/kg i.p.): remained significant
total fluid consumption (FIG. 3C), 19 h after injection (Sprague-Dawley rats; [6]): reduced
water consumption across sessions (Sprague-Dawley rats; [6]): not altered
total fluid consumption (Sprague-Dawley rats; saline/water experiment, 10 mg/kg i.p.): remained unchanged
water consumption across sessions (Sprague-Dawley rats; saline/water experiment, 10, 20 and 40 mg/kg i.p.): not different across sessions
total fluid consumption (Sprague-Dawley rats; saline/water experiment, 20 and 40 mg/kg i.p.): significantly reduced
effect on total fluid consumption, recovery session (Sprague-Dawley rats; saline/water experiment, highest dose (40 mg/kg i.p.)): also significant
total fluid consumption, post-injection session vs baseline (Sprague-Dawley rats; [7]): reduced
water consumption across sessions (Sprague-Dawley rats; [7]): remained stable
water consumption (Sprague-Dawley rats; 40 mg/kg i.p.): significantly reduced
water consumption (Sprague-Dawley rats; 10 and 20 mg/kg i.p.): remained unchanged
weights of fat depots ([1]; 18-MC 20 mg/kg i.p. for 14 days, periovarian, perirenal and inguinal fat pads): decreased
recovery of the weight gain after cessation of treatment ([1]; 18-MC-treated sucrose-drinking group): did not occur for another week
sucrose-induced (excessive) weight gain ([1]; 30% sucrose, 18-MC 20 mg/kg i.p. daily for two weeks): attenuated; also recorded: totally prevented
body weights vs vehicle-treated sucrose-drinking animals ([1]; 30% sucrose, 18-MC (40 mg/kg i.p.) as printed, all time points except the first): significantly lower
water intake over the 24 hours following administration (rats [2]; 18-MC 10-40 mg/kg i.p.): no significant effect
intake of sucrose over the 24 hours following administration (rats [2]; 18-MC 10-40 mg/kg i.p., sucrose (15%) or water): decreased
ceiling dose beyond which no further effect on ad libitum sucrose intake (rats [2]; dose range 10-40 mg/kg i.p.): 10 mg/kg
decrease of drug self-administration (rats [3]; 20 mg/kg, i.p., depending on the drug): 40-80%
motor effects (rats [3]; at times when self-administration is decreased): no motor effects
duration of effects on drug self-administration (rats [3]; rat, in vivo): at least 24 hours
effect on oral intake of ethanol (rats [3]; rat, in vivo, po): anti-addictive
cocaine, methamphetamine and nicotine self-administration (rats [3]; rats): decreases
morphine self-administration (rats [3]; rats): dose-dependently decreases
responding for water (non-drug reinforcer) (rats [3]; same doses that decrease drug self-administration): do not affect
sensitized morphine-induced dopamine release in the nucleus accumbens [4]: attenuate
signs of acute opioid withdrawal (rats [5]): alleviate
